Consider 15 compounds from patent US20240409585A1, “MACROCYCLIC IMMUNOMODULATORS” (priority 2021, published 2024).

For orientation: IC50 means the concentration that gives 50% inhibition.

Bridge positions count the residues as written; N and C are the ends. Square brackets hold non-standard residues; d marks the D form. Peptide text beside a SMILES is read from it. * marks the point of attachment. ξ: configuration not given here. Tyr(3-NO2) = N[C@@H](Cc1ccc(O)c([N+](=O)[O-])c1)C(=O)O; Phe(4-COOH) = N[C@@H](Cc1ccc(C(=O)O)cc1)C(=O)O; Phe(4-CH2NH2) = NCc1ccc(C[C@H](N)C(=O)O)cc1; Bip = N[C@@H](Cc1ccc(-c2ccccc2)cc1)C(=O)O; pY = N[C@@H](Cc1ccc(OP(=O)(O)O)cc1)C(=O)O; Lys(Me3) = C[N+](C)(C)CCCC[C@H](N)C(=O)O; Phe(3-CN) = N#Cc1cccc(C[C@H](N)C(=O)O)c1; Phe(3-Me) = Cc1cccc(C[C@H](N)C(=O)O)c1; 2Pal = N[C@@H](Cc1ccccn1)C(=O)O; Cha = N[C@@H](CC1CCCCC1)C(=O)O; Cit = NC(=O)NCCC[C@H](N)C(=O)O; Ile(3ξ) = CCC(C)[C@H](N)C(=O)O; Thr(3ξ) = CC(O)[C@H](N)C(=O)O; Dap(Me) = CNC[C@H](N)C(=O)O; Carboxymethyl = O=C(O)C*; NMeA = CN[C@@H](C)C(=O)O; Orn = NCCC[C@H](N)C(=O)O; Dab = NCC[C@H](N)C(=O)O; Nva = CCC[C@H](N)C(=O)O; Dap = NC[C@H](N)C(=O)O; ξC = NC(CS)C(=O)O

The target of the first test is T1, PE-labeled human PD-L1-Ig binding to Jurkat cell line over-expressing human PD-1 (Jurkat-PD-1) (Homo sapiens, UniProt Q15116).
T1 construct: expressed in transfected cells; host or cells: Jurkat
T1 sequence (Q15116 25-288): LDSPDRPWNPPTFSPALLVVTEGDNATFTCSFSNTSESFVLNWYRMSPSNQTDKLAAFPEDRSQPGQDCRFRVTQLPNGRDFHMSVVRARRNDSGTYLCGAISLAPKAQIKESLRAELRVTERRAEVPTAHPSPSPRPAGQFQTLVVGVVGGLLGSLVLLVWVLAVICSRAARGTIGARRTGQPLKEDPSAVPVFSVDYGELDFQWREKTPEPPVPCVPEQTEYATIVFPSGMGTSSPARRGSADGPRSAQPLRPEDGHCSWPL
Description: Jurkat-PD-1 Cell Binding High-Content Screening Assay (CBA): Method 1. Conditions: Jurkat HPDL1 PD1 IC50 (uM) (Method 1), Jurkat-hPD-1 cells, PE-labeled PD-L1-Ig 20 nM final.
As for `CC(C)C[C@@H]1NC(=O)[C@H](Cc2c[nH]c3ccccc23)NC(=O)[C@H](CC(=O)O)NC(=O)[C@H](Cc2ccc(OP(=O)(O)O)cc2)NC(=O)[C@H](Cc2ccccc2)NC(=O)CSC[C@@H](C(=O)N[C@@H](C)C(N)=O)NC(=O)[C@H](CO)NC(=O)[C@H](C(C)C)NC(=O)[C@H](CC(C)C)NC(=O)[C@H](CC(N)=O)NC(=O)[C@@H](C)NC(=O)[C@H](C)N(C)C(=O)[C@H](C(C)C)NC(=O)[C@H](Cc2ccc(-c3ccccc3)cc2)NC1=O` [Compound 1756] ({CH2CO}-F[pY]DWL[Bip]V[NMeA][dA]NLVSCA-NH2; thioether N-14), the IC50 was 0.03 µM.

The same test, now with this note: Jurkat-hPD-1 cells, PE-labeled PD-L1-Ig 20 nM final; read-out: Jurkat HPDL1 PD1 IC50 (uM) (Method 1).
Take `CCC(C)[C@@H]1NC(=O)[C@H](Cc2ccc(-c3ccccc3)cc2)NC(=O)[C@H](CC(C)C)NC(=O)[C@H](Cc2c[nH]c3ccccc23)NC(=O)[C@H](CC(=O)O)NC(=O)[C@H](Cc2ccc(C(=O)O)cc2)NC(=O)[C@H](Cc2ccc(OCC(=O)O)cc2)NC(=O)CSC[C@@H](C(=O)N[C@@H](CO)C(N)=O)NC(=O)[C@H](CO)NC(=O)[C@H](C(C)C)NC(=O)[C@H](CC2CCCCC2)NC(=O)[C@H](CCN)NC(=O)[C@@H](CC(C)C)NC(=O)[C@H](C)N(C)C1=O` (stereo partly drawn) [Compound 1929] ({CH2CO}-Y(Carboxymethyl)[Phe(4-COOH)]DWL[Bip][Ile(3ξ)][NMeA][dL][Dab][Cha]VSCS-NH2; thioether N-14): the IC50 stood at 0.02 µM.
Still for that read-out and setting: then `CC(C)C[C@@H]1NC(=O)CSC[C@@H](C(=O)N[C@@H](C)C(N)=O)NC(=O)[C@H]([C@@H](C)O)NC(=O)[C@H](C(C)C)NC(=O)[C@H](CC(C)C)NC(=O)[C@H](CCN)NC(=O)[C@@H](CC(C)C)NC(=O)[C@H](C)N(C)C(=O)[C@H](CCCNC(=N)N)NC(=O)[C@H](Cc2ccc(-c3ccccc3)cc2)NC(=O)[C@H](C(C)C)NC(=O)[C@H](Cc2c[nH]c3ccccc23)NC(=O)[C@H](CC(=O)O)NC(=O)[C@H](Cc2ccc(O)cc2)NC1=O` [Compound 1039] ({CH2CO}-LYDWV[Bip]R[NMeA][dL][Dab]LVTCA-NH2; thioether N-14), with 0.08 µM; and `CNC[C@@H]1NC(=O)[C@@H](CC(C)C)NC(=O)[C@H](C)N(C)C(=O)[C@H](CCCNC(N)=O)NC(=O)[C@H](Cc2ccc(-c3ccccc3)cc2)NC(=O)[C@H](C(C)C)NC(=O)[C@H](Cc2c[nH]c3ccccc23)NC(=O)[C@H](CC(=O)O)NC(=O)[C@H](Cc2ccc(O)cc2)NC(=O)[C@H](CC(N)=O)NC(=O)CSC[C@@H](C(=O)N[C@@H](C)C(N)=O)NC(=O)[C@H](C(C)O)NC(=O)[C@H](C(C)C)NC(=O)[C@H](CC(C)C)NC1=O` (stereo partly drawn) [Compound 2039] ({CH2CO}-NYDWV[Bip][Cit][NMeA][dL][Dap(Me)]LV[Thr(3ξ)]CA-NH2; thioether N-14), with 0.08 µM.
Still for that read-out and setting: with `Cc1cccc(C[C@@H]2NC(=O)[C@H](CC(=O)O)NC(=O)[C@H](Cc3ccc(OCC(=O)O)cc3)NC(=O)[C@H](CC(N)=O)NC(=O)CSC[C@@H](C(N)=O)NC(=O)[C@H]([C@@H](C)O)NC(=O)[C@H](C(C)C)NC(=O)[C@H](CC3CCCCC3)NC(=O)[C@H](CCN)NC(=O)[C@@H](CC(C)C)NC(=O)[C@H](C)N(C)C(=O)[C@H](Cc3ccc(OCC(=O)O)cc3)NC(=O)[C@H](Cc3ccc(-c4ccccc4)cc3)NC(=O)[C@H](Cc3ccc(OCC(=O)O)cc3)NC2=O)c1` [Compound 1666] ({CH2CO}-NY(Carboxymethyl)D[Phe(3-Me)]Y(Carboxymethyl)[Bip]Y(Carboxymethyl)[NMeA][dL][Dab][Cha]VTC-NH2; thioether N-14) the figure was 0.09 µM.
As to `CCC(C)[C@@H]1NC(=O)[C@H](Cc2ccc(-c3ccccc3)cc2)NC(=O)[C@H](C(C)C)NC(=O)[C@H](Cc2cccc(C)c2)NC(=O)[C@H](CC(=O)O)NC(=O)[C@H](Cc2ccc(OCC(=O)O)cc2)NC(=O)[C@H](CCCC[N+](C)(C)C)NC(=O)CSCC(C(=O)NCC(N)=O)NC(=O)[C@H](CO)NC(=O)[C@H](C(C)C)NC(=O)[C@H](CC(C)C)NC(=O)[C@H](CC(N)=O)NC(=O)[C@@H](CC(C)C)NC(=O)[C@H](C)N(C)C1=O` (stereo partly drawn) [Compound 2064] ({CH2CO}-[Lys(Me3)]Y(Carboxymethyl)D[Phe(3-Me)]V[Bip][Ile(3ξ)][NMeA][dL]NLVS[ξC]G-NH2; thioether N-14), the IC50 is 0.04 µM.
The same measure, in the same setting: with `CC(C)C[C@@H]1NC(=O)[C@H](CCCN)NC(=O)[C@@H](CC(C)C)NC(=O)[C@H](C)N(C)C(=O)[C@H](CCC(=O)O)NC(=O)[C@H](Cc2ccc(-c3ccccc3)cc2)NC(=O)[C@H](C(C)C)NC(=O)[C@H](Cc2c[nH]c3ccccc23)NC(=O)[C@H](CC(=O)O)NC(=O)[C@H](Cc2ccc(O)cc2)NC(=O)[C@H](CC(N)=O)NC(=O)CSC[C@@H](C(=O)N[C@@H](C)C(N)=O)NC(=O)[C@H]([C@@H](C)O)NC(=O)[C@H](C(C)C)NC1=O` [Compound 1239] ({CH2CO}-NYDWV[Bip]E[NMeA][dL][Orn]LVTCA-NH2; thioether N-14) the figure was 0.08 µM; with `CCC[C@@H]1NC(=O)[C@H](Cc2ccc(-c3ccccc3)cc2)NC(=O)[C@H](C(C)C)NC(=O)[C@H](Cc2c[nH]c3ccccc23)NC(=O)[C@H](CC(=O)O)NC(=O)[C@H](Cc2ccc(O)cc2)NC(=O)[C@H](CC(N)=O)NC(=O)CSC[C@@H](C(=O)N[C@@H](C)C(N)=O)NC(=O)[C@H]([C@@H](C)O)NC(=O)[C@H](C(C)C)NC(=O)[C@H](CC(C)C)NC(=O)[C@H](CCN)NC(=O)[C@@H](CC(C)C)NC(=O)[C@H](C)N(C)C1=O` [Compound 1258] ({CH2CO}-NYDWV[Bip][Nva][NMeA][dL][Dab]LVTCA-NH2; thioether N-14), 0.04 µM.
As to `Cc1cccc(C[C@@H]2NC(=O)[C@H](CC(=O)O)NC(=O)[C@H](Cc3ccc(C(=O)O)cc3)NC(=O)[C@H](Cc3ccc(OCC(=O)O)cc3)NC(=O)CSC[C@@H](C(N)=O)NC(=O)[C@H](CO)NC(=O)[C@H](C(C)C)NC(=O)[C@H](CC(C)C)NC(=O)[C@H](Cc3c[nH]cn3)NC(=O)[C@@H](CC(C)C)NC(=O)[C@H](C)N(C)C(=O)[C@H](C(C)C)NC(=O)[C@H](Cc3ccc(-c4ccccc4)cc3)NC(=O)[C@H](Cc3ccc(CN)cc3)NC2=O)c1` [Compound 1876] ({CH2CO}-Y(Carboxymethyl)[Phe(4-COOH)]D[Phe(3-Me)][Phe(4-CH2NH2)][Bip]V[NMeA][dL]HLVSC-NH2; thioether N-14), the IC50 was determined as 0.34 µM.
On the same count and under the same terms, then `Cc1cccc(C[C@@H]2NC(=O)[C@H](CC(=O)O)NC(=O)[C@H](Cc3ccc(OCC(=O)O)cc3)NC(=O)[C@H]([C@@H](C)O)NC(=O)CSC[C@@H](C(N)=O)NC(=O)[C@H](CC(=O)O)NC(=O)[C@H](C(C)C)NC(=O)[C@H](CC3CCCCC3)NC(=O)[C@H](CCN)NC(=O)[C@@H](CC(C)C)NC(=O)[C@H](C)N(C)C(=O)[C@H](Cc3ccc(OCC(=O)O)cc3)NC(=O)[C@H](Cc3ccc(-c4ccccc4)cc3)NC(=O)[C@H](Cc3ccc(OCC(=O)O)cc3)NC2=O)c1` [Compound 1670] ({CH2CO}-TY(Carboxymethyl)D[Phe(3-Me)]Y(Carboxymethyl)[Bip]Y(Carboxymethyl)[NMeA][dL][Dab][Cha]VDC-NH2; thioether N-14), with 0.08 µM; and `CC[C@H](C)[C@@H]1NC(=O)[C@H](Cc2ccc(-c3ccccc3)cc2)NC(=O)[C@H](C(C)C)NC(=O)[C@H](Cc2c[nH]c3ccccc23)NC(=O)[C@H](CC(=O)O)NC(=O)[C@H](Cc2ccc(C(=O)O)cc2)NC(=O)[C@H](CN)NC(=O)CSC[C@@H](C(=O)N[C@@H](C)C(N)=O)NC(=O)[C@H]([C@@H](C)O)NC(=O)[C@H](C(C)C)NC(=O)[C@H](CC(C)C)NC(=O)[C@H](CCN)NC(=O)[C@@H](CC(C)C)NC(=O)[C@H](C)N(C)C1=O` [Compound 1412] ({CH2CO}-[Dap][Phe(4-COOH)]DWV[Bip]I[NMeA][dL][Dab]LVTCA-NH2; thioether N-14), with 0.05 µM; and `CC(C)C[C@@H]1NC(=O)[C@H](CCN)NC(=O)[C@@H](CC(C)C)NC(=O)[C@H](C)N(C)C(=O)[C@H](CCCNC(N)=O)NC(=O)[C@H](Cc2ccc(-c3ccccc3)cc2)NC(=O)[C@H](C(C)C)NC(=O)[C@H](Cc2c[nH]c3ccccc23)NC(=O)[C@H](CC(=O)O)NC(=O)[C@H](Cc2ccc(O)cc2)NC(=O)[C@H](CC(N)=O)NC(=O)CSC[C@@H](C(=O)N[C@@H](C)C(N)=O)NC(=O)[C@H](CO)NC(=O)[C@H](C(C)C)NC1=O` [Compound 1237] ({CH2CO}-NYDWV[Bip][Cit][NMeA][dL][Dab]LVSCA-NH2; thioether N-14), with 0.03 µM.
For the compound `CC(C)C[C@@H]1NC(=O)[C@H](CCN)NC(=O)[C@@H](CC(C)C)NC(=O)[C@H](C)N(C)C(=O)[C@H](CCCNC(N)=O)NC(=O)[C@H](Cc2ccc(-c3ccccc3)cc2)NC(=O)[C@H](C(C)C)NC(=O)[C@H](Cc2c[nH]c3ccccc23)NC(=O)[C@H](CC(=O)O)NC(=O)[C@H](Cc2ccc(O)c([N+](=O)[O-])c2)NC(=O)[C@H](Cc2ccccn2)NC(=O)CSC[C@@H](C(=O)N[C@@H](C)C(N)=O)NC(=O)[C@H]([C@@H](C)O)NC(=O)[C@H](C(C)C)NC1=O` [Compound 1337] ({CH2CO}-[2Pal][Tyr(3-NO2)]DWV[Bip][Cit][NMeA][dL][Dab]LVTCA-NH2; thioether N-14), the IC50 turned out to be 0.28 µM.
Regarding `CC(C)C[C@@H]1NC(=O)[C@H](CCCNC(=N)N)NC(=O)[C@@H](CC(C)C)NC(=O)[C@H](C)N(C)C(=O)[C@H](CCCNC(N)=O)NC(=O)[C@H](Cc2ccc(-c3ccccc3)cc2)NC(=O)[C@H](C(C)C)NC(=O)[C@H](Cc2c[nH]c3ccccc23)NC(=O)[C@H](CC(=O)O)NC(=O)[C@H](Cc2ccc(O)cc2)NC(=O)[C@H](CC(N)=O)NC(=O)CSC[C@@H](C(=O)N[C@@H](C)C(N)=O)NC(=O)[C@H]([C@@H](C)O)NC(=O)[C@H](C(C)C)NC1=O` [Compound 1166] ({CH2CO}-NYDWV[Bip][Cit][NMeA][dL]RLVTCA-NH2; thioether N-14), the IC50 turned out to be 0.06 µM.
Turning to `CC(C)C[C@@H]1NC(=O)[C@H](CCN)NC(=O)[C@@H](CC(C)C)NC(=O)[C@H](C)N(C)C(=O)[C@H](C(C)C)NC(=O)[C@H](Cc2ccc(-c3ccccc3)cc2)NC(=O)[C@H](C(C)C)NC(=O)[C@H](Cc2c[nH]c3ccccc23)NC(=O)[C@H](CC(=O)O)NC(=O)[C@H](Cc2cccc(C#N)c2)NC(=O)[C@H](CC(N)=O)NC(=O)CSC[C@@H](C(=O)N[C@@H](C)C(N)=O)NC(=O)[C@H]([C@@H](C)O)NC(=O)[C@H](C(C)C)NC1=O` [Compound 1380] ({CH2CO}-N[Phe(3-CN)]DWV[Bip]V[NMeA][dL][Dab]LVTCA-NH2; thioether N-14), the half-maximal inhibitory concentration (IC50) is 0.02 µM.
